According to US20200399262A1, “COMPOUNDS FOR INHIBITING PROTEIN DEGRADATION AND METHODS OF USE THEREOF IN THE TREATMENT OF CANCER” (PI Therapeutics Ltd, priority 2018, published 2020):
In brackets after ≈: the same amount, converted by molar mass.

Assays:
[1] = system: HCT-116 xenograft; assay: HCT-116 colorectal flank xenograft in nude mice; type: in vivo; details: 8 mg/kg IV, TIW for 21 days
Description: FIG. 6A-6D show the evaluated in-vivo efficacy of Compound AA in a colorectal mouse flank xenograft models (HCT116, SW620). […] HCT-116 or SW620 cells (5×10^6 cells/mouse) were implanted in the rear flank of mail mice (6 weeks of age at the time of tumor implantation). On Day 20-23, mice were randomized for equivalent distribution of tumor volumes to treatment groups (n=5/group) and treated IV with vehicle, Compound AA (FIG. 6A, FIG. 6B) TIW for 21 days. Data are presented as mean tumor volume±SD. Body weight % changes in treated animals observed at end point (FIG. 6C, FIG. 6D). Animal xenograft models. MM1.S, HCT-116, SW620 cell lines were purchased from ATCC and used for xenograft model. The cells were cultured in RPMI medium (Sigma-Aldrich) supplemented with 10% fetal bovine serum (FBS) and divided for up to 5 passages. Shortly prior to injection, cell suspension was mixed with Matrigel at 1:[…]) and injected subcutaneously to the rear flank area of male nude athymic 6 weeks old mice to obtain administration of 5×10^6 cells/animal. On day 20-23, when tumor volume reached 100-150 mm^3, mice were randomized for equivalent distribution of tumor volumes to treatment groups (n=5/group) and treated via intravenous injection.

[2] = system: HT-29; assay: NCI60 screen cytotoxicity; type: cell-based; details: Homo sapiens, Colon cancer, read-out: Compound B1 EC50
[3] = system: U251; assay: NCI60 screen cytotoxicity; type: cell-based; details: Homo sapiens, U-251, CNS, read-out: Compound B1 EC50
[4] = system: SK-MEL-28; assay: NCI60 screen cytotoxicity; type: cell-based; details: Homo sapiens, Melanoma, read-out: Compound B1 EC50
[5] = system: SN12C; assay: NCI60 screen cytotoxicity; type: cell-based; details: Homo sapiens, Renal cancer, read-out: Compound B1 EC50
[6] = system: SW-620; assay: NCI60 screen cytotoxicity; type: cell-based; details: Homo sapiens, Colon cancer, read-out: Compound B1 EC50
[7] = system: HCC-2998; assay: NCI60 screen cytotoxicity; type: cell-based; details: Homo sapiens, Colon cancer, read-out: Compound B1 EC50
[8] = Kinetic solubility by differential UV absorbance; type: physicochemical; details: aqueous buffer, kinetic from dmso stock; DMSO stock diluted in PBS, OD before and after centrifugation
Experimental: FIG. 3A-3B depict the kinetic solubility of Compound B1 (FIG. 3A) and Compound E1 (FIG. 3B) as measured by differential UV absorbance of the compounds, as performed before and after centrifugation. Soluble concentrations were determined when OD was equivalent between centrifuged and non-centrifuged fractions. Compounds were dissolved from co-solvent stock, and further serially 2-fold diluted in PBS. OD was measured at the maximal absorbance for each compound before (BC) and after (AC) centrifugation, using Spark 20M, Tecan.
Kinetic solubility quantification. Compound B1/Compound E1 DMSO stock was diluted with PBS by serial 2-fold dilutions. Then, the samples were centrifuged for 5 minutes at 17,000 g to precipitate any insoluble compound. Each sample was tested at a single wave length (Compound B1 at […]; Compound E1 at […]) in duplicate before and after centrifugation to assess solubility of the compound. Soluble concentrations were determined when optical density (OD) was equivalent between centrifuged and non-centrifuged fractions.
Kinetic solubility of all Compounds was determined by differential UV absorbance before and after centrifugation. […] Solubility concentration was determined when OD was equivalent between centrifuged and non-centrifuged fractions (FIG. 3A-3B).

[9] = system: ACHN; assay: NCI60 screen cytotoxicity; type: cell-based; details: Homo sapiens, Renal cancer, read-out: Compound B1 EC50
[10] = system: UO-31; assay: NCI60 screen cytotoxicity; type: cell-based; details: Homo sapiens, Renal cancer, read-out: Compound B1 EC50
[11] = system: K-562; assay: NCI60 screen cytotoxicity; type: cell-based; details: Homo sapiens, K562, Leukemia, read-out: Compound B1 EC50
[12] = system: HCT-15; assay: NCI60 screen cytotoxicity; type: cell-based; details: Homo sapiens, Colon cancer, read-out: Compound B1 EC50
[13] = system: OVCAR-8; assay: NCI60 screen cytotoxicity; type: cell-based; details: Homo sapiens, Ovarian cancer, read-out: Compound B1 EC50
[14] = system: NCI-H322M; assay: NCI60 screen cytotoxicity; type: cell-based; details: Homo sapiens, Lung cancer, read-out: Compound B1 EC50
[15] = system: HCT-116; assay: NCI60 screen cytotoxicity; type: cell-based; details: Homo sapiens, Colon cancer, read-out: Compound B1 EC50
[16] = system: SF-539; assay: NCI60 screen cytotoxicity; type: cell-based; details: Homo sapiens, CNS, read-out: Compound B1 EC50
[17] = system: NCI-H522; assay: NCI60 screen cytotoxicity; type: cell-based; details: Homo sapiens, Lung cancer, read-out: Compound B1 EC50

SMILES	Animal body weight [1]	tumor growth compared to vehicle control [1]	EC50 [2] [nM]	EC50 [3] [nM]	EC50 [4] [nM]	EC50 [5] [nM]	EC50 [6] [nM]	EC50 [7] [nM]	solubility kinetic [8] [µM]	EC50 [9] [nM]	EC50 [10] [nM]	EC50 [11] [nM]	EC50 [12] [nM]	EC50 [13] [nM]	EC50 [14] [nM]	EC50 [15] [nM]	EC50 [16] [nM]	EC50 [17] [nM]
CN(C)CCCS(=O)(=O)N1C/C(=C\c2ccc(C#N)cc2)C(=O)/C(=C/c2ccc(C#N)cc2)C1 [Compound AA]	not considerably affected	significantly inhibited tumor growth	–	–	–	–	–	–	–	–	–	–	–	–	–	–	–	–
CN(C)CC(=O)NCC(=O)N1C/C(=C\c2ccc(C#N)cc2)C(=O)/C(=C/c2ccc(C#N)cc2)C1 [Compound B1]	–	–	300 to 1000	< 300	300 to 1000	< 300	< 300	< 300	50 (≈ 23.4 µg/mL)	< 300	300 to 1000	< 300	< 300	< 300	300 to 1000	< 300	300 to 1000	< 300
